According to article PMC9911388, “Secondary metabolic profiling of Serratia marcescens NP10 reveals new stephensiolides and glucosamine derivatives with bacterial membrane activity” (Scientific Reports, 2023):

Columns and labels:
S. aureus RN4220 [1] = assay: Membrane depolarisation assay: DiSC3(5); format: cell-based, Staphylococcus aureus; details: for Time to membrane depolarisation / Time to two-fold increase in DiSC3(5) fluorescent signal: at MIC; for Time to membrane depolarisation: DiSC3(5) assay; for Time to two-fold increase in DiSC3(5) fluorescent signal: from the initial reading at 120 s; for DiSC3(5) fluorescence (membrane depolarisation): ½MIC, MIC and two-fold MIC, DiSC3(5) 0.4 µM, read over 12 min
Description: To gain insight into whether stephensiolides and glucosamine derivatives cause membrane depolarisation of S. aureus, membrane potential was assessed by monitoring the release of the voltage-sensitive dye 3,3′-dipropylthiadicarbocyanine iodide [DiSC3(5)][25],[26].
The membrane depolarisation capabilities (ability to disrupt membrane potential) of GluA, GluC, StpK and StpU against S. aureus RN4220 was determined using the voltage-sensitive fluorescent probe, 3,3'-dipropylthiadicarbocyanine iodide [DiSC3(5)][25],[39]. Due to the cationic charge and hydrophobic nature of DiSC3(5), the fluorescent dye can penetrate and accumulate in lipid bilayers until Nernstian equilibrium is reached, resulting in the quenching of the fluorescent signal. Once depolarisation occurs (i.e., changes in ion permeability and dissipating transmembrane potential), the dye is rapidly released into the medium and subsequently results in the dequenching of the fluorescent signal. Briefly, black 96 well plates were prepared with the selected four compounds at two-fold MIC, MIC and ½MIC as described in the “Resazurin Broth Microdilution Assay” section. The S. aureus RN4220 strain was prepared in CA-MHB and grown to mid-log phase to obtain an OD600 of 0.5–0.6. Cells were harvested by centrifugation at 3000 rpm for 10 min and resuspended in HEPES buffer (5 mM, pH 7.4, containing 20 mM glucose; 100 mM KCl) to OD600 of 0.05. Thereafter, DiSC3(5) (stock concentration of 400 µM in 100% DMSO) was added to the cell suspension to a final concentration of 0.4 µM and cells were incubated in the dark at room temperature for 60 min. Cell suspensions (100 µL) were then dispensed into the wells of the 96 well plate containing the compounds. Sterile broth and the OD adjusted inoculum with DiSC3(5) were included as a non-fluorescent control, sterile broth with DiSC3(5) was included as a sterility control, and melittin was included as membrane depolarisation control. Fluorometric readings of the plate were conducted in 2 min intervals over 12 min (readings began 120 s after cells were added to the compounds) using a Tecan Spark at 622 nm excitation wavelength and 670 nm emission wavelength.

[2] = UPLC C18 retention time used as measure of hydrophobicity; format: physicochemical; details: chromatographic; UPLC-MS of NP10 crude extract; C18 Acquity UPLC HSS T3 1.8 μm, 2.1 × 150 mm; H2O/MeCN with 0.1% formic acid; 40 to 95% B from 0.5 to 15 min; 0.300 mL/min
Description: The pooled NP10 crude extract was analysed using UPLC-MS^E at the Liquid Chromatography Mass Spectrometry (LCMS) unit at the Central Analytical Facility (CAF, SU) as outlined in Clements-Decker et al.[4]. Briefly, the UPLC-MS^E was conducted on a Waters Synapt G2 high resolution mass spectrometer linked to an Acquity UPLC™ (Waters Corporation, Milford, USA). Three microlitres (1.00 mg/mL) was separated on an UPLC C18 reverse-phase analytical column (Acquity UPLC® HSS T3, 1.8 μm particle size, 2.1 × 150 mm, Waters Corporation, Dublin, Ireland). The UPLC was conducted with analytical quality H2O containing 0.1% (v/v) formic acid as solution A and MeCN containing 0.1% (v/v) formic acid as solution B at a flow rate of 0.300 mL/min as follows: 60% A from 0 to 0.5 min for loading, linear gradient from 40 to 95% (B) from 0.5 to 15 min and 95 to 40% (B) from 15 to 18 min. The positive mode ESI conditions included: 2.5 kV capillary voltage, 15 V cone voltage, 120 °C source temperature, desolvation temperature of 275 °C, 50 L/h cone gas flow, 650 L/h desolvation gas flow, and m/z range of 200 to 2000 in centroid mode.

S. aureus RN4220 [3] = assay: Resazurin broth microdilution assay (resazurin vitality assay); format: cell-based, Staphylococcus aureus; details: for MIC: RP-HPLC purified fractions, MIC = concentration giving ≥ 90% inhibition of growth by fluorometric reading, range 9.8 to 625 µg/mL, 1 h at 37 °C, then resazurin 1.5 h, triplicate, independent duplicate experiments; for IC50: derived from sigmoidal dose-response curves (GraphPad Prism, nonlinear regression, best-fit)
Description: The RP-HPLC purified fractions were tested for antibacterial activity using a broth microdilution assay coupled with the metabolic dye, resazurin[20] against S. aureus RN4220. The principle of the assay was based on the rate of reduction of the resazurin dye to resorufin, with survival of the cell equated to an increased conversion of this dye, while a decreased rate of conversion indicates impairment of cellular metabolism and was thus equated to cell death. Briefly, the test strain was inoculated into 10 mL of cation adjusted-Mueller Hinton broth (Sigma-Aldrich) (CA-MHB containing […]) and incubated at 37 °C for 18 to 24 h. Following overnight incubation, the culture was diluted into the respective media and grown to mid-log phase to obtain an optical density (OD) at 0.3 (± 1.4 × 10^8 cells mL^-1) determined at 600 nm.
The RP-HPLC fractions were then diluted in MeCN to a concentration of […]. Fifty microlitres of each fraction was dispensed into the first row of the respective wells of a clear Greiner CELLSTAR® 96-well culture plate (Merck, Johannesburg, South Africa) containing 50 μL of analytical quality H2O, in triplicate. A microdilution was performed in the 96-well culture in 50 μL of sterile analytical quality H2O in each well and the plate was dried at 50 °C for 18 to 24 h to remove the solvent. Thereafter, 10 μL of target cells in mid-log phase at the adjusted OD was dispensed into each well, resulting in a final antimicrobial concentration range of each fraction from 9.8 to 625 µg/mL and incubated for 1 h at 37 °C. After 1 h incubation, 90 μL of phosphate buffered saline (PBS) was added to each well, followed by 10 μL of resazurin [prepared to a stock solution 0.3 mg/mL in PBS; Sigma-Aldrich (St Louis, MO, USA)]. The plate was then incubated at 37 °C for 1.5 h. Finally, fluorometric readings of the plate were conducted using a Tecan Spark 10 M Multimode Microplate Reader at 560 nm excitation wavelength and 590 nm emission wavelength. Sterile broth and the OD adjusted inoculum were included in the assay as a positive control, while sterile broth was included as a negative control. Tests were performed in triplicate, with independent duplicate experiments.
The percentage inhibition was calculated as described by van Rensburg et al.[20]. […] The MIC vs retention time was plotted using Graphpad Prism version 3.01 for Windows [GraphPad Software, San Diego, USA (www.graphpad.com)].

S. aureus RN4220 [4] = assay: Membrane permeability assay: propidium iodide uptake; format: cell-based, Staphylococcus aureus; details: PI 10 µg/mL; for Time to two-fold increase in PI fluorescence from the initial reading: at MIC; for PI fluorescence (membrane permeabilisation): ½MIC and MIC, read over 60 min
Description: To gain insight into whether stephensiolides and glucosamine derivatives cause increased membrane permeability by forming lesions within the cell membrane of S. aureus, membrane permeability was assessed by monitoring the influx of propidium iodide (PI) and subsequent staining of nucleic acids within the cell, resulting in a fluorescent signal[23],[24]. Fluorescence was measured for 1 h at the MIC and ½MIC of compounds 12, 14, 22 and 26 (Fig. 5a and b).
The membrane permeability capabilities of GluA, GluC, StpK and StpU on S. aureus RN4220 was determined using propidium iodide (PI) (Sigma-Aldrich; St. Louis, MO, USA)[23]. This fluorescent dye can only enter bacterial cells through membrane lesions that are big enough to allow the large molecule (PI has a molecular mass of 668.087 g/mol) to pass through, thus providing an indication of changes in membrane permeability. Briefly, black Greiner CELLSTAR 96-well plates (Merck, Johannesburg, South Africa) were prepared with the selected four compounds at MIC and ½MIC and dried as described in the “Resazurin Broth Microdilution Assay” section. The S. aureus RN4220 strain was prepared in CA-MHB and grown to mid-log phase (OD600 of 0.5–0.6) and diluted to OD600 of 0.3. Propidium iodide (stock concentration of 1 mg/mL in water) was added to the cell suspension to a final concentration of 10 µg/mL and cells were incubated in the dark at room temperature for 10 min. Thereafter, 100 µL of OD adjusted PI cells in mid-log phase was dispensed into each well. Sterile broth and the OD adjusted inoculum with PI were included as a positive control, while sterile broth with PI was included as a negative control. Melittin served as a positive lytic control. Fluorometric readings of the plate were conducted in 2 min intervals over 60 min (readings began 120 s after cells were added to the compounds) using a Tecan Spark at 535 nm excitation wavelength and 617 nm emission wavelength.

| Substance | Rt (retention time, hydrophobicity) [2] | MIC (S. aureus RN4220 [3]) | further results |
| --- | --- | --- | --- |
| Stephensiolide K [Compound 14] | 10.37 min | 39 µg/mL | Time to membrane depolarisation (S. aureus RN4220 [1]): ≤ 12 min; Time to two-fold increase in DiSC3(5) fluorescent signal (S. aureus RN4220 [1]): 720 s; DiSC3(5) fluorescence (membrane depolarisation) (S. aureus RN4220 [1]): induced an increase in DiSC3(5) fluorescence at all concentrations tested; IC50 (S. aureus RN4220 [3]): 25 µg/mL; Time to two-fold increase in PI fluorescence from the initial reading (S. aureus RN4220 [4]): ≤ 36 min; PI fluorescence (membrane permeabilisation) (S. aureus RN4220 [4]): induced an increase in PI fluorescence over time |
| Stephensiolide L [Compound 1] | 5.46 min | – | – |
| Stephensiolide M [Compound 2] | 6.45 min | – | – |
| Stephensiolide N [Compound 3] | 7.17 min | ≥ 300 µg/mL | – |
| Stephensiolide O [Compound 6] | 6.28 min | – | – |
| Stephensiolide P [Compound 7] | 7.00 min | – | – |
| Stephensiolide Q [Compound 8] | 8.09 min | ≥ 300 µg/mL | – |
| Stephensiolide R [Compound 9] | 8.79 min | ≥ 300 µg/mL | – |
| Stephensiolide S [Compound 10] | 8.01 min | – | – |
| Stephensiolide T [Compound 11] | 8.92 min | ≥ 300 µg/mL | MIC (S. aureus RN4220 [3]; listed as StpT): no activity observed |
| Stephensiolide U [Compound 12] | 9.57 min | 78 µg/mL | Time to membrane depolarisation (S. aureus RN4220 [1]): ≤ 8 min; Time to two-fold increase in DiSC3(5) fluorescent signal (S. aureus RN4220 [1]): 480 s; DiSC3(5) fluorescence (membrane depolarisation) (S. aureus RN4220 [1]): induced an increase in DiSC3(5) fluorescence at all concentrations tested; IC50 (S. aureus RN4220 [3]): 53 µg/mL; Time to two-fold increase in PI fluorescence from the initial reading (S. aureus RN4220 [4]): ≤ 28 min; PI fluorescence (membrane permeabilisation) (S. aureus RN4220 [4]): induced an increase in PI fluorescence over time |
| Stephensiolide V [Compound 13] | 9.74 min | – | – |
| Stephensiolide W [Compound 15] | 10.31 min | – | – |
| Stephensiolide X [Compound 16] | 10.87 min | – | – |
| Stephensiolide Y [Compound 17] | 11.88 min | – | – |
| melittin [reference compound] | – | – | Time to rapid depolarisation (control) (S. aureus RN4220 [1]; depolarisation control): ≤ 240 s; PI fluorescence (membrane permeabilisation) (S. aureus RN4220 [4]): expected increase in fluorescence signal |
